# Measured values from US20110060036A1, “Branched Multifunctional Nanoparticle Conjugates And Their Use” (EMORY UNIVERSITY, priority 2008, published 2011).
# How the values were obtained:
# MDA-MB-231 tumor = assay: Therapeutic efficacy test in MDA-MB-231 orthotopic tumor model; type: in vivo, athymic nude mice; details: for therapeutic outcome in small tumors: tumors about 30 mm^3, i.v. weekly; for therapeutic outcome in small tumors / antitumor effect in large tumors: TX equivalent 30 mg/Kg; for antitumor effect in large tumors: tumors about 120 mm^3, i.v., 4 weekly injections
# Procedure: The MDA-MB-231 tumor model was used for testing the in-vivo therapeutic efficacy of these polymer-drug conjugates. MDA-MB-231 tumors were developed in the mammary fat pad of athymic nude mice as discussed above. When the average sizes of the tumor reached 100-120 or ˜30 mm^3, mice were randomly sorted into 4 groups (6 mice each group). A paclitaxel equivalent of 30 mg/kg of free drug and polymer drug conjugates were administered i.v. and the injections were performed weekly. Tumor sizes were measured in two dimensions with calipers and volume was calculated using the following formula: Tumor volume=(length×width^2)/2. The end-point size of this tumor model was set at 1,500 mm^3, 20% weight loss or severe ulceration (more than 20% of tumor areas).
# Following the in-vivo blood circulation and tumor targeting tests, the anti-tumor activity of these nanoparticles was evaluated in comparison with free TX using the MDA-MB-231 orthotopic tumor model with two serials trials of tumor sizes of about 120 and 30 mm^3.
# [1] = room temperature (25 degrees C.); cited from earlier work
# tumor cell cultures = details: cited from earlier work
compound,measurement,setting,value
"CC(=O)O[C@H]1C(=O)[C@@]2(C)[C@H]([C@H](OC(=O)c3ccccc3)[C@]3(O)C[C@H](OC(=O)[C@H](O)[C@@H](NC(=O)c4ccccc4)c4ccccc4)C(C)=C1C3(C)C)[C@]1(OC(C)=O)CO[C@@H]1C[C@@H]2O [TX, paclitaxel]",histological analysis of tumor sections: Ki67 expression level,"MDA-MB-231 tumor; large tumors, TX equivalent 30 mg/Kg weekly",little difference compared to the control
same,therapeutic outcome in small tumors,MDA-MB-231 tumor,delayed response to the treatment
same,antitumor effect in large tumors,MDA-MB-231 tumor,little effect on tumor inhibition
CC(C)CCC[C@@H](C)[C@H]1CC[C@H]2[C@@H]3CC=C4C[C@@H](O)CC[C@]4(C)[C@H]3CC[C@]12C [cholesterol],solubility in water,[1],10 nanograms/ml
COc1cccc2c1C(=O)c1c(O)c3c(c(O)c1C2=O)C[C@@](O)(C(=O)CO)C[C@@H]3O[C@H]1C[C@H](N)[C@H](O)[C@H](C)O1 [doxorubicin],solubility in water,[1],1 milligram/ml
PG-2′-O— succinyl-paclitaxel [GT],therapeutic outcome in small tumors,MDA-MB-231 tumor,delayed response to the treatment
same,antitumor effect in large tumors,MDA-MB-231 tumor,significant antitumor effects
calicheamicin,IC50 for inhibition of growth of tumor cell cultures,tumor cell cultures,low picomolar range
dynemicin,IC50 for inhibition of growth of tumor cell cultures,tumor cell cultures,low picomolar range
esperamicin,IC50 for inhibition of growth of tumor cell cultures,tumor cell cultures,low picomolar range
